ChEMBL document CHEMBL6177967, “Semisynthesis and biological evaluation of 17-hydroxybrevianamide N derivatives as anti-inflammatory agents by mediating NF-κB and MAPK signaling pathways” (Eur J Med Chem, 2025)
The source made the active and inactive calls. The rule behind the calls is not given here.

Key:
RAW264.7 [1] = experiment: Anti-inflammatory activity in LPS-induced mouse RAW264.7 cells assessed as inhibition of NO levels incubated for 24 hrs; type: functional, cell-based; conditions: RAW264.7, 24 h
RAW264.7 [2] = experiment: Inhibition of MAPK signaling pathway in LPS-induced mouse RAW264.7 cells assessed as reduction in SAPK/JNK phosphorylation at 0.2 uM incubated for 24 hrs by Western blot analysis; type: cell-based
RAW264.7 [3] = experiment: Anti-inflammatory activity in LPS-induced mouse RAW264.7 cells assessed as inhibition of IL-1beta level at 2 uM incubated for 24 hrs by ELISA relative to control; type: functional
RAW264.7 [4] = experiment: Inhibition of MAPK signaling pathway in LPS-induced mouse RAW264.7 cells assessed as reduction in phosphorylated SAPK/JNK level at 10 uM incubated for 24 hrs by Western blot analysis; type: cell-based
RAW264.7 [5] = experiment: Inhibition of MAPK signaling pathway in LPS-induced mouse RAW264.7 cells assessed as reduction in ERK phosphorylation at 0.2 uM incubated for 24 hrs by Western blot analysis; type: cell-based
RAW264.7 [6] = experiment: Inhibition of NFkappaB pathway activation in LPS-induced mouse RAW264.7 cells assessed as inhibition of p65 phosphorylation at 0.2 uM incubated for 24 hrs by Western blot analysis; type: cell-based
RAW264.7 [7] = experiment: Anti-inflammatory activity in LPS-induced mouse RAW264.7 cells assessed as inhibition of IL-6 level at 2 uM incubated for 24 hrs by ELISA relative to control; type: functional
RAW264.7 [8] = experiment: Inhibition of NFkappaB pathway activation in LPS-induced mouse RAW264.7 cells assessed as reduction in phosphorylated p65 level at 0.2 to 10 uM incubated for 24 hrs by Western blot analysis relative to control; type: cell-based; conditions: dose 0.2-10 µM
RAW264.7 [9] = experiment: Inhibition of MAPK signaling pathway in LPS-induced mouse RAW264.7 cells assessed as reduction in phosphorylated p38 level at 10 uM incubated for 24 hrs by Western blot analysis; type: cell-based
RAW264.7 [10] = experiment: Inhibition of MAPK signaling pathway in LPS-induced mouse RAW264.7 cells assessed as reduction in p38 phosphorylation at 0.2 uM incubated for 24 hrs by Western blot analysis; type: cell-based
RAW264.7 [11] = experiment: Inhibition of NFkappaB pathway activation in LPS-induced mouse RAW264.7 cells assessed as reduction in phosphorylated IKBalpha level at 10 uM incubated for 24 hrs by Western blot analysis relative to control; type: cell-based
RAW264.7 [12] = experiment: Inhibition of NFkappaB pathway activation in LPS-induced mouse RAW264.7 cells assessed as inhibition of IKBalpha phosphorylation at 10 uM incubated for 24 hrs by Western blot analysis; type: cell-based
RAW264.7 [13] = experiment: Anti-inflammatory activity in LPS-induced mouse RAW264.7 cells assessed as inhibition of TNF-alpha level at 2 uM incubated for 24 hrs by ELISA relative to control; type: functional
[14] = Downregulation of MAPK protein expression in LPS-induced mouse RAW264.7 cells at 0.2 uM incubated for 24 hrs by Western blot analysis relative to control; type: functional
RAW264.7 [15] = experiment: Cytotoxicity against mouse RAW264.7 cells assessed as inhibition of cell growth at 2 uM incubated for 24 hrs by MTT assay; type: toxicity, cell-based; conditions: raw264.7, 24 h

- IC50 (RAW264.7 [1]): 500 nM
Compound: C=CCOc1ccccc1C[C@H]1C(=O)N(C)C(=O)c2nc3ccccc3c(=O)n21
- inhibition (RAW264.7 [2]): Active
- inhibition at 2 µM (RAW264.7 [3]): 92.9%
- inhibition (RAW264.7 [4]): Active; Reduction In Cellular P-Sapk/Jnk Level Was Almost Close To Untreated Control
- inhibition (RAW264.7 [5]): Active
- inhibition (RAW264.7 [6]): Active
- inhibition at 2 µM (RAW264.7 [7]): 54.5%
- inhibition (RAW264.7 [8]): 50%
- inhibition (RAW264.7 [9]): Active; Reduction In Cellular P-P38 Level Was Almost Close To Untreated Control
- inhibition (RAW264.7 [10]): Active
- inhibition (RAW264.7 [11]): 59%
- inhibition (RAW264.7 [12]): Active
- inhibition at 2 µM (RAW264.7 [13]): 25.6%
- Activity [14]: >30%
- Activity (RAW264.7 [15]): Non-toxic
